Reference: patent publication US20050197350A1, “Novel quinoline, tetrahydroquinazoline, and pyrimidine derivatives and methods of treatment related to the use thereof” (TAISHO PHARMACEUTICAL CO., LTD., priority 2003, published 2005)

The compounds below were run against MCH receptor (Homo sapiens, UniProt Q99705) (assay: High throughput functional screening FLIPR/FDSS6000 (intracellular Ca2+ evoked by MCH)). Settings: FLIPR/FDSS, antagonist activity vs 50 nM MCH; class by percent of control at 10^−7 M or IC50; read-out: class.
Assay type: cell-based
How it was run: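 For antagonist testing, compound-treated cells (30 min, 37 °C) were stimulated with 50 nM MCH and intracellular Ca2+ followed by Fluo4 fluorescence on FLIPR/FDSS6000. Receptor was a constitutively active, non-endogenous MCH receptor; dye loading 4 μM Fluo4-AM, 1 h, 37 °C.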
Work on Cc1cnc(N[C@H]2CC[C@@H](NCC(=O)c3ccc(Cl)cc3)CC2)nc1N(C)C [Example 3260, 1-(4-chlorophenyl)-2-[(cis-4-{[4-(dimethylamino)-5-methylpyrimidin-2-yl]amino}cyclohexyl)amino]ethanone] yielded an IC50 of 50 to 200 nM.
For Cc1cnc(N[C@H]2CC[C@@H](NCC(=O)c3ccc(F)c(F)c3)CC2)nc1N(C)C [Example 3261, 1-(3,4-difluorophenyl)-2-[(cis-4-{[4-(dimethylamino)-5-methylpyrimidin-2-yl]amino}cyclohexyl)amino]ethanone], the IC50 was greater than 200 nM.
Cc1cnc(N[C@H]2CC[C@@H](NCC(=O)c3ccc(Br)cc3)CC2)nc1N(C)C [Example 3262, 1-(4-bromophenyl)-2-[(cis-4-{[4-(dimethylamino)-5-methylpyrimidin-2-yl]amino}cyclohexyl)amino]ethanone] showed an IC50 greater than 200 nM.
Cc1cc(N(C)C)nc(N[C@H]2CC[C@@H](NC(=O)NC(C)(C)c3cc(C(F)(F)F)cc(C(F)(F)F)c3)CC2)n1 [Example 3263, N-{1-[3,5-bis(trifluoromethyl)phenyl]-1-methylethyl}-N′-(cis-4-{[4-(dimethylamino)-6-methylpyrimidin-2-yl]amino}-cyclohexyl)urea] showed an IC50 of 50 to 200 nM.
Cc1cnc(N[C@H]2CC[C@@H](NC(=O)NC(C)(C)c3ccc(Cl)cc3)CC2)nc1N(C)C [Example 3264, N-[1-(4-chlorophenyl)-1-methylethyl]-N′-(cis-4-{[4-(dimethylamino)-5-methylpyrimidin-2-yl]amino}cyclohexyl)urea] was tested, and the IC50 was less than 50 nM.
With Cc1cc(N(C)C)nc(N[C@H]2CC[C@@H](NC(=O)NC(C)(C)c3ccc(Cl)cc3)CC2)n1 [Example 3265, N-[1-(4-chlorophenyl)-1-methylethyl]-N′-(cis-4-{[4-(dimethylamino)-6-methylpyrimidin-2-yl]amino}cyclohexyl)urea] the IC50 was 50 to 200 nM.
For Cc1cnc(N[C@H]2CC[C@@H](NC(=O)NC3(c4ccc(Cl)cc4)CC3)CC2)nc1N(C)C [Example 3266, N-[1-(4-chlorophenyl)cyclopropyl]-N′-(cis-4-{[4-(dimethylamino)-5-methylpyrimidin-2-yl]amino}cyclohexyl)urea], the IC50 was less than 50 nM.
In the case of Cc1cc(N(C)C)nc(N[C@H]2CC[C@@H](NC(=O)NC3(c4ccc(Cl)cc4)CC3)CC2)n1 [Example 3267, N-[1-(4-chlorophenyl)cyclopropyl]-N′-(cis-4-{[4-(dimethylamino)-6-methylpyrimidin-2-yl]amino}cyclohexyl)urea], the IC50 is reported as less than 50 nM.
Compound Cc1cc(N(C)C)nc(N[C@H]2CC[C@@H](NC(=O)N(C)C(C)(C)c3cc(C(F)(F)F)cc(C(F)(F)F)c3)CC2)n1 [Example 3268, N-{1-[3,5-bis(trifluoromethyl)phenyl]-1-methylethyl}-N′-(cis-4-{[4-(dimethylamino)-6-methylpyrimidin-2-yl]amino}cyclohexyl)-N-methylurea] has an IC50 greater than 200 nM.
With Cc1cnc(N[C@H]2CC[C@@H](NC(=O)N(C)C(C)(C)c3ccc(Cl)cc3)CC2)nc1N(C)C [Example 3269, N-[1-(4-chlorophenyl)-1-methylethyl]-N′-(cis-4-{[4-(dimethylamino)-5-methylpyrimidin-2-yl]amino}cyclohexyl)-N-methylurea] the IC50 was less than 50 nM.
Work on Cc1cc(N(C)C)nc(N[C@H]2CC[C@@H](NC(=O)N(C)C(C)(C)c3ccc(Cl)cc3)CC2)n1 [Example 3270, N-[1-(4-chiorophenyl)-1-methylethyl]-N′-(cis-4-{[4-(dimethylamino)-6-methylpyrimidin-2-yl]amino}cyclohexyl)-N-methylurea] yielded an IC50 of 50 to 200 nM.
Cc1cnc(N[C@H]2CC[C@@H](NC(=O)N(C)C3(c4ccc(Cl)cc4)CC3)CC2)nc1N(C)C [Example 3271, N-[1-(4-chlorophenyl)cyclopropyl]-N′-(cis-4-{[4-(dimethylamino)-5-methylpyrimidin-2-yl]amino}cyclohexyl)-N-methylurea] showed an IC50 of 50 to 200 nM.
With Cc1cc(N(C)C)nc(N[C@H]2CC[C@@H](NC(=O)N(C)C3(c4ccc(Cl)cc4)CC3)CC2)n1 [Example 3272, N-[1-(4-chlorophenyl)cyclopropyl]-N′-(cis-4-{[4-(dimethylamino)-6-methylpyrimidin-2-yl]amino}cyclohexyl)-N-methylurea] the IC50 was greater than 200 nM.
In the case of Cc1cnc(N[C@H]2CC[C@@H](C(=O)NC(C)(C)c3ccc(Cl)cc3)CC2)nc1N(C)C [Example 3273, cis-N-[1-(4-chlorophenyl)-1-methylethyl]-4-{[4-(dimethylamino)-5-methylpyrimidin-2-yl]amino}cyclohexanecarboxamide], the IC50 is reported as 50 to 200 nM.
With Cc1cc(N(C)C)nc(N[C@H]2CC[C@@H](C(=O)NC(C)(C)c3ccc(Cl)cc3)CC2)n1 [Example 3274, cis-N-[1-(4-chlorophenyl)-1-methylethyl]-4-{[4-(dimethylamino)-6-methylpyrimidin-2-yl]amino}cyclohexanecarboxamide] the IC50 was greater than 200 nM.
Compound Cc1cc(N(C)C)nc(N[C@H]2CC[C@@H](C(=O)NC(C)(C)c3cc(C(F)(F)F)cc(C(F)(F)F)c3)CC2)n1 [Example 3275, cis-N-{1-[3,5-bis(trifluoromethyl)phenyl]-1-methylethyl}-4-{[4-(dimethylamino)-6-methylpyrimidin-2-yl]amino}cyclohexanecarboxamide] has an IC50 greater than 200 nM.
For COc1nc(N[C@H]2CC[C@@H](NC(=O)c3ccc(Cl)cc3)CC2)ncc1C [Example 3276, 4-chloro-N-{cis-4-[(4-methoxy-5-methylpyrimidin-2-yl)amino]cyclohexyl}benzamide], the IC50 was greater than 200 nM.
With COc1nc(N[C@H]2CC[C@@H](NC(=O)c3ccc(OC(F)(F)F)cc3)CC2)ncc1C [Example 3277, N-{cis-4-[(4-methoxy-5-methylpyrimidin-2-yl)amino]cyclohexyl}-4-(trifluoromethoxy)benzamide] the IC50 was greater than 200 nM.
Work on COc1nc(N[C@H]2CC[C@@H](NC(=O)c3ccc(Cl)c(Cl)c3)CC2)ncc1C [Example 3278, 3,4-dichloro-N-{cis-4-[(4-methoxy-5-methylpyrimidin-2-yl)amino]cyclohexyl}benzamide] yielded an IC50 of 50 to 200 nM.
In the case of COc1nc(N[C@H]2CC[C@@H](NC(=O)c3cc(Cl)cc(Cl)c3)CC2)ncc1C [Example 3279, 3,5-dichloro-N-{cis-4-[(4-methoxy-5-methylpyrimidin-2-yl)amino]cyclohexyl}benzamide], the IC50 is reported as greater than 200 nM.
Work on COc1nc(N[C@H]2CC[C@@H](NC(=O)c3cc(C(F)(F)F)cc(C(F)(F)F)c3)CC2)ncc1C [Example 3280, N-{cis-4-[(4-methoxy-5-methylpyrimidin-2yl)amino]cyclohexyl}-3,5-bis(trifluoromethyl)benzamide] yielded an IC50 greater than 200 nM.
In the case of Cc1cnc(N[C@H]2CC[C@@H](NC(=O)c3cccnc3S(=O)(=O)c3ccc(F)cc3)CC2)nc1N(C)C [Example 3281, N-(cis-4-{[4-(dimethylamino)-5-methylpyrimidin-2-yl]amino}cyclohexyl)-2-[(4-fluorophenyl)sulfonyl]nicotinamide], the IC50 is reported as less than 50 nM.
Work on Cc1cnc(N[C@H]2CC[C@@H](NC(=O)c3cccnc3S(=O)(=O)c3ccc(Cl)cc3)CC2)nc1N(C)C [Example 3282, 2-[(4-chlorophenyl)sulfonyl]-N-(cis-4-{[4-(dimethylamino)-5-methylpyrimidin-2-yl]amino}cyclohexyl)nicotinamide] yielded an IC50 of less than 50 nM.
Cc1cnc(N[C@H]2CC[C@@H](NC(=O)c3cccnc3S(=O)(=O)c3cccc(Cl)c3)CC2)nc1N(C)C [Example 3283, 2-[(3-chlorophenyl)sulfonyl]-N-(cis-4-{[4-(dimethylamino)-5-methylpyrimidin-2-yl]amino}cyclohexyl)nicotinamide] showed an IC50 of 50 to 200 nM.
In the case of Cc1cnc(N[C@H]2CC[C@@H](NC(=O)c3cccnc3S(=O)(=O)c3ccccc3Cl)CC2)nc1N(C)C [Example 3284, 2-[(2-chlorophenyl)sulfonyl]-N-(cis-4-{[4-(dimethylamino)-5-methylpyrimidin-2-yl]amino}cyclohexyl)nicotinamide], the IC50 is reported as 50 to 200 nM.
For Cc1cnc(N[C@H]2CC[C@@H](NC(=O)c3cccnc3S(=O)(=O)c3cccc(Br)c3)CC2)nc1N(C)C [Example 3285, 2-[(3-bromophenyl)sulfonyl]-N-(cis-4-{[4-(dimethylamino)-5-methylpyrimidin-2-yl]amino}cyclohexyl)nicotinamide], the IC50 was 50 to 200 nM.
COc1ccc(S(=O)(=O)c2ncccc2C(=O)N[C@H]2CC[C@@H](Nc3ncc(C)c(N(C)C)n3)CC2)cc1 [Example 3286, N-(cis-4-{[4-(dimethylamino)-5-methylpyrimidin-2-yl]amino}cyclohexyl)-2-[(4-methoxyphenyl)sulfonyl]-nicotinamide] showed an IC50 greater than 200 nM.
Cc1cnc(N[C@H]2CC[C@@H](NC(=O)c3cccnc3S(=O)(=O)c3cccc(C(F)(F)F)c3)CC2)nc1N(C)C [Example 3287, N-(cis-4-{[4-(dimethylamino)-5-methylpyrimidin-2-yl]amino}cyclohexyl)-2-{[3-(trifluoromethyl)phenyl]sulfonyl}-nicotinamide] showed an IC50 of 50 to 200 nM.
Cc1ccc(S(=O)(=O)c2ncccc2C(=O)N[C@H]2CC[C@@H](Nc3ncc(C)c(N(C)C)n3)CC2)cc1 [Example 3288, N-(cis-4-{[4-(dimethylamino)-5-methylpyrimidin-2-yl]amino}cyclohexyl)-2-[(4-methylphenyl)sulfonyl]nicotinamide] was tested, and the IC50 was 50 to 200 nM.
In the case of Cc1cnc(N[C@H]2CC[C@@H](NC(=O)c3cccnc3S(=O)(=O)c3ccc(Br)cc3)CC2)nc1N(C)C [Example 3289, 2-[(4-bromophenyl)sulfonyl]-N-(cis-4-{[4-(dimethylamino)-5-methylpyrimidin-2-yl]amino}cyclohexyl)nicotinamide], the IC50 is reported as 50 to 200 nM.
Cc1cnc(N[C@H]2CC[C@@H](NC(=O)c3cccnc3S(=O)(=O)c3ccoc3C)CC2)nc1N(C)C [Example 3290, N-(cis-4-{[4-(dimethylamino)-5-methylpyrimidin-2-yl]amino}cyclohexyl)-2-[(2-methyl-3-furyl)sulfonyl]nicotinamide] was tested, and the IC50 was greater than 200 nM.
